Results: patent publication US20090093551A1, “REMOTELY TRIGGERED RELEASE FROM HEATABLE SURFACES” (priority 2006, published 2009)

Legend:
[1] = mouse, in vivo
Description: Phenol red free, growth factor reduced matrigel (400 μl, BD Biosciences) was added to 100 μl of particles. To obtain 1.05% total concentration of particles, 75 μl of DNA-conjugated particles (approximately 3.3 mg/ml) were added to 25 μl of similar 50 nm particles (200 mg/ml, Chemicell). Gels (total volume 500 μl) were mixed at 4° C. to prevent gelation.
Prior to injection of matrigel plugs into mice, approval from the Burnham Institute Animal Use Committee was obtained (AUF 05-054). In these experiments, 500 μl volumes were injected subcutaneous near the posterior mammary fat pad of six athymic nude mice and allowed to gel for 45 minutes. Prior to injection, animals were anesthetized with Avertin® (tribromoethanol) and remained under anesthesia during the remainder of the experiment. Three animals were treated with EM fields for two 5 minute doses, with 15 minutes between field applications (+EMF), while three were not treated (−EMF). […] To quantify penetration depth, 8 images of the tissue/phantom boundary were taken for each animal (3 animals per group, 24 images total). […] Using Metamorph software (Universal Imaging), green fluorescence on the tissue side of the boundary was quantified. For each fluorescent “object,” the area and distance from the tissue boundary was measured. An area-weighted average distance was calculated. […]

[2] = In vitro EM field-triggered release of fluorescent DNA from nanoparticles embedded in hydrogel (matrigel) plugs; settings: hydrogel plug; for release on higher power EM field: higher power 3 kW

| Substance | increase of the average distance of fluorescence signal, EM field treated over unexposed controls [1] | release of fluorescein into surrounding buffer on repeated EM field pulses ([2]; EM field pulses 400 kHz, 1.25 kW, 5 minutes every 40 minutes) | release on higher power EM field [2] | release on low power EM field pulses ([2]; low power EM field pulses 0.55 kW) |
| --- | --- | --- | --- | --- |
| 5′-TGA TTC AAG CCG ACT AAC-3′ (DNA TGATTCAAGCCGACTAAC; 5' fluorescein label, further chemistry not given here) [5′ fluorescein-labeled 18 bp complement DNA hybridized to 30 bp parent DNA on 50 nm dextran-coated magnetite nanoparticles; model drug] | approximately six-fold | corresponding release of fluorescein |  |  |
| 5′-CGCTGATTCAAGCCGACTAACCGC-3′ (DNA CGCTGATTCAAGCCGACTAACCGC; DNA, backbone and methylation of C not given here; fluorescent dye at 5' end, dye not named) [24 bp, HEX, 5′ HEX-labeled 24 bp complement DNA hybridized to 30 bp parent DNA on magnetite nanoparticles] |  |  | simultaneous release of both species |  |
| 5′-TCG CTG ATT CAA-3′ (DNA TCGCTGATTCAA; DNA, backbone and methylation of C not given here; fluorescent dye at 5' end, dye not named) [12 bp, FAM, 5′ FAM-labeled 12 bp complement DNA hybridized to 30 bp parent DNA on magnetite nanoparticles] |  |  | simultaneous release of both species | triggered release predominantly of FAM |
